This note sets out measurements from US20250115600A1, “COVALENT MODIFIERS OF AKT1 AND USES THEREOF” (Terremoto Biosciences, Inc., priority 2022, published 2025).

Test [1] has as its target T1, AKT1 WT (Homo sapiens (Human), UniProt P31749). The experiment in a line: Live cell target engagement (NanoBRET) in HEK293 cells. Format: cell-based. Conditions: HEK293, 2 hours at 37° C.
Target sequence in this assay (P31749 whole entry): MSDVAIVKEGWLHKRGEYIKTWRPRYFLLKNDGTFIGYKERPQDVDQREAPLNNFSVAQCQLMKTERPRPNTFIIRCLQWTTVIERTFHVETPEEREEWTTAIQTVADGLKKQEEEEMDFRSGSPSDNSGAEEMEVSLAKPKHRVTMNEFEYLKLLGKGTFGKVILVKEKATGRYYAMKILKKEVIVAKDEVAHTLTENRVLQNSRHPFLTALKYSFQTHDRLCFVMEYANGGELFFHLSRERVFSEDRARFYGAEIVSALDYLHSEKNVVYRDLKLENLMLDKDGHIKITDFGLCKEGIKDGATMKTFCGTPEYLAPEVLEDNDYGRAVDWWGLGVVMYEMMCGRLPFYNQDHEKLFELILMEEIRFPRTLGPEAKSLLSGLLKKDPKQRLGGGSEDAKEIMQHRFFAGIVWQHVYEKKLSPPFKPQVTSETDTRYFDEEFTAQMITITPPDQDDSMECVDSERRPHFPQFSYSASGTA
The target of test [2] is AKT2 (Homo sapiens (Human), UniProt P31751). The description is as above. Type of test: cell-based. Particulars: HEK293, 2 hours at 37° C.
For test [3], the target named is AKT1 E17K (Homo sapiens (Human), UniProt P31749, E17K). The description is as above. Conditions: for IC50: HEK293, 2 hours at 37° C. Type of test: cell-based.
In test [4] the target is AKT1 E17K mutant protein (Homo sapiens (Human), UniProt P31749, E17K). The experiment in a line: Intact mass spectrometry, covalent complex formation and ARQ-092 competition. Type of test: binding. How it is done: (§1) AKT1 WT or AKT1 E17K (1 μM) was treated with a compound from Table 1 (1.5 μM) for 2 hrs at 37° C., with and without ARQ092 (50 μM) competitor as a specificity control. Reversible imines were captured by reductive amination with 5 mM NaBH4 for 5 min. Reduction reactions were quenched by diluting the sample in equal volume acetonitrile+1% TFA, then analyzed by LCMS.
(§2) FIGS. 1 to 25 provide intact mass spectra for AKT1 WT protein and AKT1 E17K mutant protein after incubation with compounds of the present disclosure and subsequent borohydride reduction. […] Further, FIGS. 1 to 10, 12, and 14 to 25 each provide intact mass spectra following the incubation of an AKT1 protein with a compound of the present disclosure both in the absence of a competitor molecule (i.e., ARQ-092, a molecule known to bind to and inhibit the function of AKT1); and in the presence of a significant stoichiometric excess of a competitor molecule.

Test [5] addresses T1, AKT1 WT. The description is as above. Format: binding. Conditions: protein 1 μM, compound 1.5 μM, 2 hrs at 37° C., NaBH4 reduction. How it is done:
as §1, §2
Target sequence in this assay (P31749 2-480): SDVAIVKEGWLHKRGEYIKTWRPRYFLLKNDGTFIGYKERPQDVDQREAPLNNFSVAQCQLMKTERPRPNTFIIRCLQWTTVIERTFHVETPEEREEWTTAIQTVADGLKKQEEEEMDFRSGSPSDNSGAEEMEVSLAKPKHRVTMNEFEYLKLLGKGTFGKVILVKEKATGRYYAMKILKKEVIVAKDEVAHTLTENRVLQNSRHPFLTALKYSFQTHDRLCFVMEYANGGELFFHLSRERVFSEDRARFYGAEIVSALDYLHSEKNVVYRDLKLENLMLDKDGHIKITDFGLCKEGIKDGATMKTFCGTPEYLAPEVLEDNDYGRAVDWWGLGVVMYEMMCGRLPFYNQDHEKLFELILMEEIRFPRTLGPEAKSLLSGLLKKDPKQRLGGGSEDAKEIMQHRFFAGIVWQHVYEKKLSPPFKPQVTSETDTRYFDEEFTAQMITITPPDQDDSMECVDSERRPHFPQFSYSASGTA

A word on the IC50: it is the midpoint of a concentration-inhibition curve.

Sequence of AKT1 E17K (P31749 whole entry E17K): as the sequence (P31749 whole entry) above, with E17K counted along it
Sequence of AKT1 E17K mutant protein (P31749 2-480 E17K): as the sequence (P31749 2-480) above, with E16K counted along it
Sequence of AKT2 (P31751 whole entry): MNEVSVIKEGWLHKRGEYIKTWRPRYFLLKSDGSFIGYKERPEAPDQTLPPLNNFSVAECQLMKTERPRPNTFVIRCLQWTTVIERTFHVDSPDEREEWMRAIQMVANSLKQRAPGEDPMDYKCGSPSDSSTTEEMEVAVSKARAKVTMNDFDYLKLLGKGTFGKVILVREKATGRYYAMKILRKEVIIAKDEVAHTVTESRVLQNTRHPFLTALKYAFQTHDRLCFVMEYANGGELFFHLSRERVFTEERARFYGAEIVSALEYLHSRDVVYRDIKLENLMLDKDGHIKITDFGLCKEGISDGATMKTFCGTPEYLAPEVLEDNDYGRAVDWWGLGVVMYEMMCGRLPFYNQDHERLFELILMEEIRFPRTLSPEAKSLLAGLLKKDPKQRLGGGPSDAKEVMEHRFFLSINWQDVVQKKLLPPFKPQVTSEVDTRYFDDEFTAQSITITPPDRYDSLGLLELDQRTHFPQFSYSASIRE

Turning to `Nc1ncccc1-c1nc2ccc(-n3cccn3)nc2n1-c1ccc(C2(NC(=O)Cc3ccc(C=O)c(O)c3F)CC2)cc1` [Compound 141, N-(1-{4-[2-(2-aminopyridin-3-yl)-5-(pyrazol-1-yl)imidazo[4,5-b]pyridin-3-yl]phenyl}cyclopropyl)-2-(2-fluoro-4-formyl-3-hydroxyphenyl)acetamide], the IC50 in test [1], in test [2] and in test [3] was < 0.1 µM throughout. Besides, the “AKT1 E17K IC50: Selectivity vs AKT1 WT” value in test [3] is 1.2. Also, in test [3], the “AKT1 E17K IC50: Selectivity vs AKT2” value amounted to 4.4. The “selectivity of complex formation, AKT1 E17K versus AKT1 WT” value in test [4] (comparison of the spectra without competitor) is given as “selective for complex formation with AKT1 E17K”. Besides, the “covalent complex formation with AKT1 E17K mutant protein” value in test [4] (protein 1 μM, compound 1.5 μM, 2 hrs at 37° C., NaBH4 reduction, absence of competitor) was “significant presence of a covalent complex”. Further, the “covalent complex formation with AKT1 E17K mutant protein in presence of competitor” value in test [4] (protein 1 μM, compound 1.5 μM, 2 hrs at 37° C., NaBH4 reduction, with ARQ092 (50 μM)) is “Essentially no covalent complex formation”. Moreover, the “covalent complex formation with AKT1 WT protein” value in test [5] (absence of competitor) is recorded as “presence of a covalent complex”. The “covalent complex formation with AKT1 WT protein in presence of competitor” value in test [5] (with ARQ092 (50 μM)) is reported as “Essentially no covalent complex formation”.
For the molecule `Nc1ncccc1-c1nc2ccc(-c3ccccc3)nc2n1-c1ccc(C(=O)NCc2ccc(O)c(C=O)c2)cc1` [Compound 29, 4-(2-(2-aminopyridin-3-yl)-5-phenyl-3H-imidazo[4,5-b]pyridin-3-yl)-N-(3-formyl-4-hydroxybenzyl)benzamide], the IC50 in test [1] was < 0.1 µM. Also, the IC50 in test [2] lay within 0.1 to 0.5 µM. In test [3], the “AKT1 E17K IC50: Selectivity vs AKT1 WT” value worked out at 3, the “AKT1 E17K IC50: Selectivity vs AKT2” value is reported as 23 and the 50% inhibitory concentration (IC50) was < 0.1 µM.
`Nc1ncccc1-c1nc2ccc(N3CC4CCC(C3)O4)nc2n1-c1ccc(CNC(=O)Cc2ccc(C=O)c(O)c2)cc1` [Example 8, N-({4-[2-(2-aminopyridin-3-yl)-5-{8-oxa-3-azabicyclo[3.2.1]octan-3-yl}imidazo[4,5-b]pyridin-3-yl]phenyl}methyl)-2-(4-formyl-3-hydroxyphenyl)acetamide] displayed an IC50 in test [1] of 0.1 to 0.5 µM. Moreover, the concentration for half-maximal inhibition (IC50) in test [2] was > 0.5 µM. Further, in test [3], the “AKT1 E17K IC50: Selectivity vs AKT1 WT” value is recorded as 12, the “AKT1 E17K IC50: Selectivity vs AKT2” value was 120 and the half-maximal inhibitory concentration (IC50) is < 0.1 µM.
Consider `CN(Cc1ccc(-n2c(-c3cccnc3N)nc3ccc(-c4ccccc4)nc32)cc1)C(=O)Cc1ccc(C=O)c(O)c1` [Compound 64, N-(4-(2-(2-aminopyridin-3-yl)-5-phenyl-3H-imidazo[4,5-b]pyridin-3-yl)benzyl)-2-(4-formyl-3-hydroxyphenyl)-N-methylacetamide], for which, in test [1], the IC50 is < 0.1 µM. This molecule also displayed an IC50 in test [2] of 0.1 to 0.5 µM. Further, in test [3], the “AKT1 E17K IC50: Selectivity vs AKT1 WT” value is on record as 0.5, the “AKT1 E17K IC50: Selectivity vs AKT2” value was 2 and the IC50 was < 0.1 µM.
For the molecule `Nc1ncccc1-c1nc2ccc(-c3ccccc3)nc2n1-c1ccc(C(=O)NCc2ccc(C=O)c(O)c2)cc1` [Compound 137, 4-(2-(2-aminopyridin-3-yl)-5-phenyl-3H-imidazo[4,5-b]pyridin-3-yl)-N-(4-formyl-3-hydroxybenzyl)benzamide], the IC50 in test [1] is < 0.1 µM; in test [2] it was 0.1 to 0.5 µM; in test [3] it was < 0.1 µM. Further, the “AKT1 E17K IC50: Selectivity vs AKT1 WT” value in test [3] was 0.91. Further, the “AKT1 E17K IC50: Selectivity vs AKT2” value in test [3] is given as 4.1.
For `Nc1ncccc1-c1nc2ccc(-c3ccncc3)nc2n1-c1ccc(CNC(=O)Cc2ccc(C=O)c(O)c2)cc1` [Compound 61, N-({4-[2-(2-aminopyridin-3-yl)-5-(pyridin-4-yl)imidazo[4,5-b]pyridin-3-yl]phenyl}methyl)-2-(4-formyl-3-hydroxyphenyl)acetamide], the half-inhibitory concentration (IC50) in test [1] is < 0.1 µM. In addition, the IC50 in test [2] was > 0.5 µM. Moreover, in test [3], the “AKT1 E17K IC50: Selectivity vs AKT1 WT” value was 3, the “AKT1 E17K IC50: Selectivity vs AKT2” value worked out at 66 and the 50% inhibitory concentration (IC50) is < 0.1 µM.
Regarding `CC(=O)N(C)C1CCN(c2cccc(-c3ccc4nc(-c5cccnc5N)n(-c5ccc(CNCCc6ccc(C=O)c(O)c6)cc5)c4n3)c2)CC1` [Compound 109, N-(1-{3-[2-(2-aminopyridin-3-yl)-3-[4-({[2-(4-formyl-3-hydroxyphenyl)ethyl]amino}methyl)phenyl]imidazo[4,5-b]pyridin-5-yl]phenyl}piperidin-4-yl)-N-methylacetamide], the IC50 in test [1] is < 0.1 µM. For the same molecule, the IC50 in test [2] is < 0.1 µM. In addition, in test [3], the “AKT1 E17K IC50: Selectivity vs AKT1 WT” value stood at 0.63, the “AKT1 E17K IC50: Selectivity vs AKT2” value is on record as 0.6 and the IC50 was < 0.1 µM.
For `Nc1ncccc1-c1nc2ccc(NC3CC3)nc2n1-c1ccc(CNC(=O)Cc2ccc(C=O)c(O)c2)cc1` [Compound 25, N-({4-[2-(2-aminopyridin-3-yl)-5-(cyclopropylamino)imidazo[4,5-b]pyridin-3-yl]phenyl}methyl)-2-(4-formyl-3-hydroxyphenyl)acetamide], the half-maximal inhibitory concentration (IC50) in test [1] is < 0.1 µM. Moreover, in test [2], the IC50 was > 0.5 µM. In test [3], the “AKT1 E17K IC50: Selectivity vs AKT1 WT” value turned out to be 4.3, the “AKT1 E17K IC50: Selectivity vs AKT2” value was found to be 120 and the 50% inhibitory concentration (IC50) is < 0.1 µM.
Regarding `COc1cc(CCNCc2ccc(-n3c(-c4cccnc4N)nc4ccc(-c5ccccc5)nc43)cc2)ccc1C=O` [Compound 97, 4-{2-[({4-[2-(2-aminopyridin-3-yl)-5-phenylimidazo[4,5-b]pyridin-3-yl]phenyl}methyl)amino]ethyl}-2-methoxybenzaldehyde], the IC50 in test [1] is < 0.1 µM. For the same molecule, in test [2], the IC50 lay within 0.1 to 0.5 µM. In addition, in test [3], the “AKT1 E17K IC50: Selectivity vs AKT1 WT” value is 0.56, the “AKT1 E17K IC50: Selectivity vs AKT2” value is 1.9 and the IC50 was < 0.1 µM.
For the molecule `CS(=O)(=O)Nc1cccc(-c2ccc3nc(-c4cccnc4N)n(-c4ccc(CNCCc5ccc(C=O)c(O)c5)cc4)c3n2)c1` [Compound 101, N-{3-[2-(2-aminopyridin-3-yl)-3-[4-({[2-(4-formyl-3-hydroxyphenyl)ethyl]amino}methyl)phenyl]imidazo[4,5-b]pyridin-5-yl]phenyl}methanesulfonamide], the IC50 in test [1] was < 0.1 µM. In test [2], this molecule registered an IC50 of 0.1 to 0.5 µM. Moreover, in test [3], the “AKT1 E17K IC50: Selectivity vs AKT1 WT” value worked out at 1.8, the “AKT1 E17K IC50: Selectivity vs AKT2” value is reported as 5.9 and the IC50 is < 0.1 µM.
As for `Nc1ncccc1-c1nc2ccc(-c3ccccc3)nc2n1-c1ccc(CNC(=O)c2ccc(O)c(C=O)c2F)cc1` [Example 15, N-(4-(2-(2-aminopyridin-3-yl)-5-phenyl-3H-imidazo[4,5-b]pyridin-3-yl)benzyl)-2-fluoro-3-formyl-4-hydroxybenzamide], the IC50 in test [1] was 0.1 to 0.5 µM. Further, the IC50 in test [2] is > 0.5 µM. In addition, in test [3], the “AKT1 E17K IC50: Selectivity vs AKT1 WT” value came out at 2, the “AKT1 E17K IC50: Selectivity vs AKT2” value worked out at 13 and the concentration for half-maximal inhibition (IC50) was < 0.1 µM.
Consider `Nc1ncccc1-c1nc2ccc(C(F)F)nc2n1-c1ccc(CNC(=O)Cc2ccc(C=O)c(O)c2)cc1` [Example 7, N-({4-[2-(2-aminopyridin-3-yl)-5-(difluoromethyl)imidazo[4,5-b]pyridin-3-yl]phenyl}methyl)-2-(4-formyl-3-hydroxyphenyl)acetamide], for which the half-maximal inhibitory concentration (IC50) in test [1] was 0.1 to 0.5 µM. Besides, in test [2], the IC50 is > 0.5 µM. For the same molecule, in test [3], the “AKT1 E17K IC50: Selectivity vs AKT1 WT” value was 5.8, the “AKT1 E17K IC50: Selectivity vs AKT2” value is on record as 110 and the IC50 was < 0.1 µM.
As for `Nc1ncccc1-c1nc2ccc(-c3ccccc3)nc2n1-c1ccc(CNc2cc(-c3ccc(C=O)c(O)c3)ccn2)cc1` [Compound 87, 4-(2-((4-(2-(2-aminopyridin-3-yl)-5-phenyl-3H-imidazo[4,5-b]pyridin-3-yl)benzyl)amino)pyridin-4-yl)-2-hydroxybenzaldehyde], the half-maximal inhibitory concentration (IC50) in test [1] is > 0.5 µM. Further, the half-maximal inhibitory concentration (IC50) in test [2] was > 0.5 µM. For the same molecule, in test [3], the “AKT1 E17K IC50: Selectivity vs AKT1 WT” value turned out to be 0.72, the “AKT1 E17K IC50: Selectivity vs AKT2” value amounted to 1.6 and the half-inhibitory concentration (IC50) was > 0.5 µM.
`Nc1ncccc1-c1nc2cccnc2n1-c1ccc(CNC(=O)c2ccc(C=O)c(O)c2)cc1` [Compound 84, N-({4-[2-(2-aminopyridin-3-yl)imidazo[4,5-b]pyridin-3-yl]phenyl}methyl)-4-formyl-3-hydroxybenzamide]: the IC50 in test [1] lay in the range of 0.1 to 0.5 µM. The concentration for half-maximal inhibition (IC50) in test [2] was > 0.5 µM. Moreover, in test [3], the “AKT1 E17K IC50: Selectivity vs AKT1 WT” value is recorded as 0.22, the “AKT1 E17K IC50: Selectivity vs AKT2” value stood at 4.8 and the half-maximal inhibitory concentration (IC50) was > 0.5 µM.
Regarding `Nc1ncccc1-c1nc2cccnc2n1-c1ccc(CCC(=O)Nc2ccc(C=O)c(O)c2)cc1` [Compound 86, 3-(4-(2-(2-aminopyridin-3-yl)-3H-imidazo[4,5-b]pyridin-3-yl)phenyl)-N-(4-formyl-3-hydroxyphenyl)propanamide], the half-maximal inhibitory concentration (IC50) in test [1] is > 0.5 µM; in test [2], > 0.5 µM; in test [3], < 0.1 µM. The “AKT1 E17K IC50: Selectivity vs AKT1 WT” value in test [3] worked out at 25. In addition, the “AKT1 E17K IC50: Selectivity vs AKT2” value in test [3] is reported as 74.
